Source: ChEMBL document CHEMBL1140014, “Synthesis and evaluation of pyrazolo[3,4-b]pyridine CDK1 inhibitors as anti-tumor agents” (Bioorg Med Chem Lett, 2007)
In brackets after ≈: the same amount, converted by molar mass.

What was measured:
[1] = biological target: Cyclin-dependent kinase 1 (Homo sapiens, UniProt P06493); assay: Inhibition of CDK1
[2] = Inhibition of Aurora2; parameters: species or system Homo sapiens
[3] = biological target: Vascular endothelial growth factor receptor 2 (Homo sapiens, UniProt P35968); assay: Inhibition of VEGFR2
HeLa = assay: cells; conditions: Homo sapiens
A-375 = assay: cells; conditions: Homo sapiens
HCT-116 = assay: cells; conditions: Homo sapiens
[4] = biological target: Receptor tyrosine-protein kinase erbB-2 (Homo sapiens, UniProt P04626); assay: Inhibition of HER2
[5] = Solubility in 20% hydroxyl propyl beta-cyclodextrin; type: physicochemical; conditions: 20% hydroxypropyl beta-cyclodextrin solution
[6] = biological target: Proto-oncogene tyrosine-protein kinase receptor Ret (Homo sapiens, UniProt P07949); assay: Inhibition of RET
Chain of Proto-oncogene tyrosine-protein kinase receptor Ret (P07949 whole entry): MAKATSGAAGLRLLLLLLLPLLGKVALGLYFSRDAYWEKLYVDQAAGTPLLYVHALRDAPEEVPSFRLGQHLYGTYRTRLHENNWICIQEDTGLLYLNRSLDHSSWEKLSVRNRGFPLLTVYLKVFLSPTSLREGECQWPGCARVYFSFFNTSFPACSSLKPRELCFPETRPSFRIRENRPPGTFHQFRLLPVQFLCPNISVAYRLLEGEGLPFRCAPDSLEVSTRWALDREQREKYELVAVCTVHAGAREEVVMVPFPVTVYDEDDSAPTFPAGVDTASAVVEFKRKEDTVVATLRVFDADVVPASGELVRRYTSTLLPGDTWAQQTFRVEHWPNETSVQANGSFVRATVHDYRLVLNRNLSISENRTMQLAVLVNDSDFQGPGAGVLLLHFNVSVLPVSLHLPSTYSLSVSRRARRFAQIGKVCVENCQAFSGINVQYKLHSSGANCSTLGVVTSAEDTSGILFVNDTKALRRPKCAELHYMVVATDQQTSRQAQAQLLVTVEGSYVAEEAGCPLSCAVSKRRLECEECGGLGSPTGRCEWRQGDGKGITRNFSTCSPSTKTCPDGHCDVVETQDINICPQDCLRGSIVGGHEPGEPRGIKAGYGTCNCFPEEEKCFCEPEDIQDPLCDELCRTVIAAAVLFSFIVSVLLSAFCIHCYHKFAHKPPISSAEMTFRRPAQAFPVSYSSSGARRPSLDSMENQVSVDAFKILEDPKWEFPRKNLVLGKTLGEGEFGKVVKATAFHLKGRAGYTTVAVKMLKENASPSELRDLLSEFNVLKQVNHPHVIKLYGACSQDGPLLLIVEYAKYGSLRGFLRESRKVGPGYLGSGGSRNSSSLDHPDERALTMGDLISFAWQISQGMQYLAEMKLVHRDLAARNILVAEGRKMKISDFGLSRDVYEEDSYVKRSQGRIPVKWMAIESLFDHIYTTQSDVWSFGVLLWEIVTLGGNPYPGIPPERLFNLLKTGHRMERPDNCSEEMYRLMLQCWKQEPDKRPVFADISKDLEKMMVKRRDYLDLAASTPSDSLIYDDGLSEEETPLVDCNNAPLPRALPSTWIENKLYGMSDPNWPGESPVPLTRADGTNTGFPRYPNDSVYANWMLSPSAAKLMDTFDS

Chain of Vascular endothelial growth factor receptor 2 (P35968 whole entry): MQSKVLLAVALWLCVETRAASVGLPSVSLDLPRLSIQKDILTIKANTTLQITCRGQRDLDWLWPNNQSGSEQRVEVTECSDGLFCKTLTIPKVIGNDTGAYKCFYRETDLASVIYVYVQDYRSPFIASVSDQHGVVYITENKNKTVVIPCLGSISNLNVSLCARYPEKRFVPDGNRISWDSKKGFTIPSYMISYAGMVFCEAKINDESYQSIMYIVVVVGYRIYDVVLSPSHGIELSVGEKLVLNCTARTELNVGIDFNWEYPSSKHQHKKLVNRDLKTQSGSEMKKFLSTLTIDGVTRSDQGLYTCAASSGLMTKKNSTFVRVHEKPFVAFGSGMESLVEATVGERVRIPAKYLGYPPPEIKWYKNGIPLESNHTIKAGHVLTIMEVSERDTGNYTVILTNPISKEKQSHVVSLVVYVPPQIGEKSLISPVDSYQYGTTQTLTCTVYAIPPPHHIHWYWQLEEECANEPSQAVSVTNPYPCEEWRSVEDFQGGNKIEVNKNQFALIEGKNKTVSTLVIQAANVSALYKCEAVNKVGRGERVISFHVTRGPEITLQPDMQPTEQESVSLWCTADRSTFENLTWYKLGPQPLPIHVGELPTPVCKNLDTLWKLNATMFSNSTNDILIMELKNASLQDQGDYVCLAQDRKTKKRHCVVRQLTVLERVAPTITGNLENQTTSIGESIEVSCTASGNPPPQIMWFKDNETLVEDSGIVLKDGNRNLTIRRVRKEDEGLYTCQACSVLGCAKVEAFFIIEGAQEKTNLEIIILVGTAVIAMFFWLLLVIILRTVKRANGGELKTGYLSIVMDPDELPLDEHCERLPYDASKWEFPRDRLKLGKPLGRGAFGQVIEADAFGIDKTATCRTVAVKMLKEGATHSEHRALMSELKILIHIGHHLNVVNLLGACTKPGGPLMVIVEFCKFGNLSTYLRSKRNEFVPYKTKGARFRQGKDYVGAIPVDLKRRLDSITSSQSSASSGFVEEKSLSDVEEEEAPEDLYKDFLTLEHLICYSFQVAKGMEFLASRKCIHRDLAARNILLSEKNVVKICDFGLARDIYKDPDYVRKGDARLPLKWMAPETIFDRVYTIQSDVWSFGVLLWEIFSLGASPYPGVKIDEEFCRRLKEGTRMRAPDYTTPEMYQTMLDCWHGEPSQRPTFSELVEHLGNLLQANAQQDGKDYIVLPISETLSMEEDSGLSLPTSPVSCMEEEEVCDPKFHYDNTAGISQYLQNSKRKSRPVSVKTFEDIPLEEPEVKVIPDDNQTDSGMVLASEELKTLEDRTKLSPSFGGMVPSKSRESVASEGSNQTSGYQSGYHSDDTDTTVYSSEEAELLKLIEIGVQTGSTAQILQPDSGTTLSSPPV
Chain of Cyclin-dependent kinase 1 (P06493 whole entry): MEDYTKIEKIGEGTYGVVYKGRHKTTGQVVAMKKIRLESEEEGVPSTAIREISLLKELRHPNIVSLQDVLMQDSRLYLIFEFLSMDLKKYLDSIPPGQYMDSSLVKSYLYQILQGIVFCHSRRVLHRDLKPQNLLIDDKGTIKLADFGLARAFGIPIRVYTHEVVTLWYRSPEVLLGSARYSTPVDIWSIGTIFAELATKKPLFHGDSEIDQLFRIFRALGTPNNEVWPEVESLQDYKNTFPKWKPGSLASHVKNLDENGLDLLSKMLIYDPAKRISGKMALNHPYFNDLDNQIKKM
Chain of Receptor tyrosine-protein kinase erbB-2 (P04626 whole entry): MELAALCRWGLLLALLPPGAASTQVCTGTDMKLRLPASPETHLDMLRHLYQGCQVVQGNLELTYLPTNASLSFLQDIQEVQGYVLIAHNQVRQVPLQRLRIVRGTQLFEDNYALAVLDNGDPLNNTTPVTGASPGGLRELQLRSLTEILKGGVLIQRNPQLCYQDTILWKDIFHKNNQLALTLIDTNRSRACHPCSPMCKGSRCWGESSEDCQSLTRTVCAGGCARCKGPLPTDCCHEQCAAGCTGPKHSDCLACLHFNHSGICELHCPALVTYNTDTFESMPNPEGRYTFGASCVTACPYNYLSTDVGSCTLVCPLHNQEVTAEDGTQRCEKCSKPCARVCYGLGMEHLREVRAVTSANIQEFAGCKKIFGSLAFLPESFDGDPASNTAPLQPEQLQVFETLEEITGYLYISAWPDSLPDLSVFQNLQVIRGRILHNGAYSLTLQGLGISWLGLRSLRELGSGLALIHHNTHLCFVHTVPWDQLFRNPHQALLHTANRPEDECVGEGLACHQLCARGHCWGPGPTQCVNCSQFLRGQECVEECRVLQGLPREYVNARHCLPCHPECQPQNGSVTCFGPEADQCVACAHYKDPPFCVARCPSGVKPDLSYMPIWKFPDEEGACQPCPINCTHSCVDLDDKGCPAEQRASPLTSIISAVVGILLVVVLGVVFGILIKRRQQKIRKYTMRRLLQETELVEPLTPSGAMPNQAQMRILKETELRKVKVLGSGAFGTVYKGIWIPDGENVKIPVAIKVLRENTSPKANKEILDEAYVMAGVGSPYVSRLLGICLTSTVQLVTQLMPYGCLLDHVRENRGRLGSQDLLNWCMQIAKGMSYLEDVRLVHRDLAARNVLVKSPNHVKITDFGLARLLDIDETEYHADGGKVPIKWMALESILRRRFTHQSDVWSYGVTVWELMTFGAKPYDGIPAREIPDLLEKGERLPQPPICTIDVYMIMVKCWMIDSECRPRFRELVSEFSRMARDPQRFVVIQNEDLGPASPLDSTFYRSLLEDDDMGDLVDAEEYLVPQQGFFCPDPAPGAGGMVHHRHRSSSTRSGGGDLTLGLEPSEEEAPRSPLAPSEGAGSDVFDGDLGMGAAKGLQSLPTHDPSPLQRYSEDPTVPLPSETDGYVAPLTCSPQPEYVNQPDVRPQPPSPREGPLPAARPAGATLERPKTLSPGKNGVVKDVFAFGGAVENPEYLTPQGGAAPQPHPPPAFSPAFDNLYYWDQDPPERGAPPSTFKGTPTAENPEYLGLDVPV

SMILES | IC50 [1] [nM] | IC50 [2] [nM] | IC50 [3] [nM] | IC50 (HeLa) [nM] | IC50 (A-375) [nM] | IC50 (HCT-116) [nM] | IC50 [4] [nM] | solubility [5] [mg/mL] | IC50 [6] [nM]
COCc1cccc2[nH]c(-c3n[nH]c4ncc(-c5cncc(CN(C)C)c5)cc34)nc12 | 120 | 3750 | 1600 | 1230 | 330 | 190 | – | – | –
CCNCc1cncc(-c2cnc3[nH]nc(-c4nc5c(COC)cccc5[nH]4)c3c2)c1C | 110 | 8020 | 4670 | – | – | – | – | – | –
CCN(CC)C(=O)c1cccc2[nH]c(-c3n[nH]c4ncc(-c5cncc6ccccc56)cc34)nc12 | – | 1000 | 10000 | 170 | 71 | 55 | > 10000 | – | –
COCc1cccc2[nH]c(-c3nn(C)c4ncc(-c5cncc6ccccc56)cc34)nc12 | 120 | 100000 | > 100000 | 1170 | 260 | 200 | – | – | –
c1ccc2c(-c3cnc4[nH]nc(-c5nc6ccccc6[nH]5)c4c3)cncc2c1 | 23 | – | – | 1700 | 870 | 550 | – | – | –
COC(=O)c1cccc2[nH]c(-c3n[nH]c4ncc(-c5cncc6ccccc56)cc34)nc12 | 10000 | – | 100000 | 10500 | 7380 | – | – | – | –
CCCNCc1cncc(-c2cnc3[nH]nc(-c4nc5c(COC)cccc5[nH]4)c3c2)c1 | – | 3990 | – | – | – | – | – | 12.5 (≈ 29.2 mM) | –
CCNCc1cncc(-c2cnc3[nH]nc(-c4nc5cc(N6CCN(C)CC6)ccc5[nH]4)c3c2)c1 | 3 | 280 | 25 | 470 | 630 | 540 | – | 12.5 (≈ 26.7 mM) | –
CNCc1cncc(-c2cnc3[nH]nc(-c4nc5c(COC)cccc5[nH]4)c3c2)c1 | 2.5 | > 1000 | 640 | 460 | 270 | 310 | – | – | 1000
Cc1cccc2[nH]c(-c3n[nH]c4ncc(-c5cncc6ccccc56)cc34)nc12 | – | – | 10000 | 3090 | 1720 | 1640 | 1000 | – | –
COCc1cccc2[nH]c(-c3n[nH]c4ncc(-c5cccnc5)cc34)nc12 | 29 | > 1000 | 160 | 650 | 33 | 19 | – | – | –
CNCc1cncc(-c2cnc3[nH]nc(-c4nc5cc(OC(F)(F)F)ccc5[nH]4)c3c2)c1 | 9 | 1000 | > 100 | – | 47 | 55 | – | 12.5 (≈ 28.4 mM) | –
CC(C)NCc1cccc2[nH]c(-c3n[nH]c4ncc(-c5cncc6ccccc56)cc34)nc12 | 13 | 3620 | 1000 | 130 | 140 | 110 | – | – | –
CCNCc1cncc(-c2cnc3[nH]nc(-c4nc5cc(OC)ccc5[nH]4)c3c2)c1 | – | 360 | > 100 | 32 | 100 | 49 | – | 12.5 (≈ 31.3 mM) | 1000
